≈ marks a conversion by molar mass, not a printed value. Like-named read-outs stand apart in the source and are kept apart here.
Legend:
Format in all cases: cell-based
[1] = system: B. pseudomallei; experiment: microbe, parasite or virus in culture; settings: Burkholderia pseudomallei; for MIC50: read-out: B. pseudomallei MIC50; for MIC90: read-out: B. pseudomallei MIC90; for MIC: read-out: B. pseudomallei MIC Range
[2] = system: E. coli MG1655 parent; experiment: MIC, microtiter-based liquid assay (CLSI); settings: Escherichia coli
[3] = system: Y. pestis; experiment: microbe, parasite or virus in culture; settings: Yersinia pestis; for MIC50: read-out: Y. pestis MIC50; for MIC90: read-out: Y. pestis MIC90; for MIC: read-out: Y. pestis MIC Range
[4] = system: P. aeruginosa 1705886; experiment: MIC, microtiter-based liquid assay (CLSI); settings: Pseudomonas aeruginosa
[5] = system: B. anthracis; experiment: microbe, parasite or virus in culture; settings: Bacillus anthracis; for MIC50: read-out: B. anthracis MIC50; for MIC90: read-out: B. anthracis MIC90; for MIC: read-out: B. anthracis MIC Range
[6] = system: A. baumannii 1705943; experiment: MIC, microtiter-based liquid assay (CLSI); settings: Acinetobacter baumannii
[7] = system: E. faecium A6349 VanA + LNZ-R; experiment: MIC, microtiter-based liquid assay (CLSI); settings: Enterococcus faecium
[8] = system: K. pneumoniae 1705966; experiment: MIC, microtiter-based liquid assay (CLSI); settings: Klebsiella pneumoniae
[9] = system: K. pneumoniae 1705949; experiment: MIC, microtiter-based liquid assay (CLSI); settings: Klebsiella pneumoniae, MDR strain
[10] = system: E. coli ATCC25922; experiment: MIC, microtiter-based liquid assay (CLSI); settings: Escherichia coli
[11] = system: S. pneumoniae 02J1175 Mef(A); experiment: MIC, microtiter-based liquid assay (CLSI); settings: Streptococcus pneumoniae
[12] = system: A. baumannii 1705936; experiment: MIC, microtiter-based liquid assay (CLSI); settings: Acinetobacter baumannii, MDR strain
[13] = system: F. tularensis; experiment: microbe, parasite or virus in culture; settings: Francisella tularensis; for MIC50: read-out: F. tularensis MIC50; for MIC90: read-out: F. tularensis MIC90; for MIC: read-out: F. tularensis MIC Range
[14] = system: P. aeruginosa ATCC27853; experiment: MIC, microtiter-based liquid assay (CLSI); settings: Pseudomonas aeruginosa
[15] = system: P. aeruginosa 1705904; experiment: MIC, microtiter-based liquid assay (CLSI); settings: Pseudomonas aeruginosa, MDR strain
[16] = system: B. mallei; experiment: microbe, parasite or virus in culture; settings: Burkholderia mallei; for MIC50: read-out: B. mallei MIC50; for MIC90: read-out: B. mallei MIC90; for MIC: read-out: B. mallei MIC Range
[17] = system: E. coli 1705878; experiment: MIC, microtiter-based liquid assay (CLSI); settings: Escherichia coli, MDR strain
[18] = system: E. coli CAG12184 TolC; experiment: MIC, microtiter-based liquid assay (CLSI); settings: Escherichia coli, CAG12184TOLC
[19] = system: S. aureus 11540 MRSA; experiment: MIC, microtiter-based liquid assay (CLSI); settings: Staphylococcus aureus
[20] = ATCC25922, read-out: MIC E. coli ATCC25922 + 50% HS
[21] = ATCC25922, read-out: MIC E. coli ATCC25922

Row | Compound | MIC50 [1] [µg/mL] | MIC90 [1] [µg/mL] | MIC [1] [µg/mL] | MIC [2] [µg/mL] | MIC50 [3] [µg/mL] | MIC90 [3] [µg/mL] | MIC [3] [µg/mL] | MIC [4] [µg/mL] | MIC50 [5] [µg/mL] | MIC90 [5] [µg/mL] | MIC [5] [µg/mL] | MIC [6] [µg/mL] | MIC [7] [µg/mL] | MIC [8] [µg/mL] | MIC [9] [µg/mL] | MIC [10, 20] [µg/mL] | MIC [10, 21] [µg/mL] | MIC [11] [µg/mL] | MIC [12] [µg/mL] | MIC50 [13] [µg/mL] | other results
1 | C[C@H](N)CCCc1cc(OC(F)(F)F)c(F)c(-c2cc3cn(-c4ccc([C@H](C)NCCCNC(=N)N)cc4)c(=O)nc3[nH]2)c1 [Compound 3] | 2 (≈ 3.24 µM) | 4 (≈ 6.49 µM) | 0.5 to 8 (≈ 0.811 to 13 µM) | 0.5 (≈ 0.811 µM) | 0.25 (≈ 0.405 µM) | 0.5 (≈ 0.811 µM) | 0.03 to 1 (≈ 0.0486 to 1.62 µM) | 4 (≈ 6.49 µM) | 0.25 (≈ 0.405 µM) | 0.25 (≈ 0.405 µM) | 0.03 to 2 (≈ 0.0486 to 3.24 µM) | 0.25 (≈ 0.405 µM) | 2 | 0.25 (≈ 0.405 µM) | 1 (≈ 1.62 µM) | 0.5 | 0.25 (≈ 0.405 µM) | 0.25 (≈ 0.405 µM) | 2 (≈ 3.24 µM) | ≤ 0.03 | MIC90 [13]: 0.12 µg/mL (≈ 0.195 µM); MIC [13]: 0.03 to 1 µg/mL (≈ 0.0486 to 1.62 µM); MIC [14]: 8 µg/mL (≈ 13 µM); MIC [15]: 8 µg/mL (≈ 13 µM); MIC50 [16]: 0.06 µg/mL (≈ 0.0973 µM); MIC90 [16]: 0.12 µg/mL (≈ 0.195 µM); MIC [16]: 0.03 to 0.5 µg/mL (≈ 0.0486 to 0.811 µM); MIC [17]: 0.5 µg/mL (≈ 0.811 µM); MIC [18]: 0.25 µg/mL (≈ 0.405 µM); MIC [19]: 0.25 µg/mL (≈ 0.405 µM)
2 | C=C[C@H](NCCCNC(=N)N)c1ccc(-n2cc3cc(-c4cc(CCC[C@H](C)N)cc(Cl)c4F)[nH]c3nc2=O)cc1 [Compound 10] | 1 (≈ 1.73 µM) | 2 (≈ 3.45 µM) | 0.25 to 8 (≈ 0.432 to 13.8 µM) | 0.25 (≈ 0.432 µM) | ≤ 0.03 | 0.06 (≈ 0.104 µM) | 0.03 to 0.25 (≈ 0.0518 to 0.432 µM) | 2 (≈ 3.45 µM) | 0.12 (≈ 0.207 µM) | 0.25 (≈ 0.432 µM) | 0.03 to 0.25 (≈ 0.0518 to 0.432 µM) | 0.25 (≈ 0.432 µM) | 0.5 | 0.25 (≈ 0.432 µM) | 0.5 (≈ 0.863 µM) | 0.25 | 0.25 (≈ 0.432 µM) | 0.25 (≈ 0.432 µM) | 2 (≈ 3.45 µM) | ≤ 0.03 | MIC90 [13]: 0.06 µg/mL (≈ 0.104 µM); MIC [13]: 0.03 to 4 µg/mL (≈ 0.0518 to 6.91 µM); MIC [14]: 4 µg/mL (≈ 6.91 µM); MIC [15]: 4 µg/mL (≈ 6.91 µM); MIC50 [16]: ≤ 0.03 µg/mL; MIC90 [16]: 0.12 µg/mL (≈ 0.207 µM); MIC [16]: 0.03 to 0.25 µg/mL (≈ 0.0518 to 0.432 µM); MIC [17]: 0.5 µg/mL (≈ 0.863 µM); MIC [18]: 0.25 µg/mL (≈ 0.432 µM); MIC [19]: 0.25 µg/mL (≈ 0.432 µM)
3 | C=CCC[C@H](NCCCNC(=N)N)c1ccc(-n2cc3cc(-c4cc(CCC[C@H](C)N)cc(Cl)c4F)[nH]c3nc2=O)cc1 [Compound 14] | 2 (≈ 3.29 µM) | 4 (≈ 6.59 µM) | 0.25 to 8 (≈ 0.412 to 13.2 µM) | 1 (≈ 1.65 µM) | 0.12 (≈ 0.198 µM) | 0.5 (≈ 0.823 µM) | 0.03 to 0.5 (≈ 0.0494 to 0.823 µM) | 2 (≈ 3.29 µM) | 0.25 (≈ 0.412 µM) | 0.25 (≈ 0.412 µM) | 0.03 to 0.5 (≈ 0.0494 to 0.823 µM) | 0.5 (≈ 0.823 µM) | 1 | 0.5 (≈ 0.823 µM) | 1 (≈ 1.65 µM) | 2 | 0.5 (≈ 0.823 µM) | 0.5 (≈ 0.823 µM) | 0.5 (≈ 0.823 µM) | 0.06 (≈ 0.0988 µM) | MIC90 [13]: 0.25 µg/mL (≈ 0.412 µM); MIC [13]: 0.03 to 2 µg/mL (≈ 0.0494 to 3.29 µM); MIC [14]: 4 µg/mL (≈ 6.59 µM); MIC [15]: 4 µg/mL (≈ 6.59 µM); MIC50 [16]: ≤ 0.03 µg/mL; MIC90 [16]: 0.25 µg/mL (≈ 0.412 µM); MIC [16]: 0.03 to 0.5 µg/mL (≈ 0.0494 to 0.823 µM); MIC [17]: 1 µg/mL (≈ 1.65 µM); MIC [18]: 0.5 µg/mL (≈ 0.823 µM); MIC [19]: 0.5 µg/mL (≈ 0.823 µM)
4 | C[C@@H](N)CCCc1cc(Cl)c(F)c(-c2cc3cn(-c4ccc(CNCCCNC(=N)N)cc4)c(=O)nc3[nH]2)c1 [Compound 1] | 4 (≈ 7.23 µM) | 4 (≈ 7.23 µM) | 0.5 to 16 (≈ 0.904 to 28.9 µM) | 0.5 (≈ 0.904 µM) | 0.12 (≈ 0.217 µM) | 0.25 (≈ 0.452 µM) | 0.03 to 0.5 (≈ 0.0542 to 0.904 µM) | 2 (≈ 3.62 µM) | 0.12 (≈ 0.217 µM) | 0.25 (≈ 0.452 µM) | 0.03 to 0.25 (≈ 0.0542 to 0.452 µM) | 0.25 (≈ 0.452 µM) | 4 | 0.25 (≈ 0.452 µM) | 2 (≈ 3.62 µM) | 0.125 | 0.125 (≈ 0.226 µM) | 0.25 (≈ 0.452 µM) | 4 (≈ 7.23 µM) | ≤ 0.03 | MIC90 [13]: ≤ 0.03 µg/mL; MIC [13]: 0.03 to 0.5 µg/mL (≈ 0.0542 to 0.904 µM); MIC [14]: 4 µg/mL (≈ 7.23 µM); MIC [15]: 8 µg/mL (≈ 14.5 µM); MIC50 [16]: ≤ 0.03 µg/mL; MIC90 [16]: 0.06 µg/mL (≈ 0.108 µM); MIC [16]: 0.03 to 0.25 µg/mL (≈ 0.0542 to 0.452 µM); MIC [17]: 1 µg/mL (≈ 1.81 µM); MIC [18]: 0.06 µg/mL (≈ 0.108 µM); MIC [19]: 0.125 µg/mL (≈ 0.226 µM)

— patent US9937183B2, “Antimicrobial compounds and methods of making and using the same” (priority 2013, dated 2018)
